Assay results taken from patent US20240366626A1, “OPHTHALMIC PREPARATION FOR MYOPIA SUPPRESSION” (TSUBOTA LABORATORY, INC., priority 2021, published 2024).
“Also recorded” adds a separate entry of the source. Structures can show the parent of a compound that is named as a salt.

Test system: mouse myopia model
Experiment: Mouse myopia model (−30D lens on right eye, 0D on left), eye drops for three weeks; change in refractive index and axial length measured
Type: in vivo, mice (C57BL6/J)
Conditions: for myopia suppressing effect (overall conclusion): mouse myopia model, eye drops for three weeks; for change in refractive index / change in axial length: −30D lens eyes vs OD lens eyes after three weeks of eye drops, bunazosin two drops once or twice per day, unoprostone two drops once per day; for change in refractive index: infrared photorefractor; for change in axial length: spectral domain OCT
Experimental: The present inventors, with a focus on the fact that certain glaucoma ophthalmic preparations are effective in suppressing myopia progression, attempted to find myopia progression suppressing effects from existing glaucoma ophthalmic preparations. In the present application, glaucoma ophthalmic preparations were administered to a mouse myopia model, and an axial length and a refractive index were measured to evaluate whether the eye drops were effective in suppressing the progression of axial myopia.
Eye drops were continuously administered for three weeks, with phosphate buffered saline (PBS) eye drops as the control group and bunazosin eye drops as the test group. Bunazosin is the main ingredient of a Detantol ophthalmic solution, and bunazosin eye drops were administered using Detantol 0.01% ophthalmic solution (manufactured by Santen Pharmaceutical Co. Ltd., 1 mL contains 0.1 mg of bunazosin hydrochloride). The number of eye drops was two drops once per day and twice a day (two drops each in the morning and evening). The refractive index and the axial length of the mouse eyeball after three weeks were measured and the amounts of change were calculated.
The refractive values were measured by using an infrared photorefractor for mice (manufactured by Prof. Schaeffel, University of Tubingen). The axial lengths were measured by using spectral domain optical coherence tomography (Envisu R4310, manufactured by Leica).
Mice similar to those in Experiment 1 were used to induce myopia. Eye drops were continually administered for three weeks, with PBS eye drops as the control group and unoprostone eye drops as the test group. Unoprostone is the main ingredient of a Rescula ophthalmic solution, and unoprostone eye drops were administered (two drops once per day, per eye) with Rescula ophthalmic solution 0.12% (Nitto Medic Co., Ltd., 1 mL contains 1.2 mg of isopropyl unoprostone). The refractive index and the axial length of the mouse eyeball after three weeks were measured and the amounts of change were calculated. The refractive index measurement and the axial length measurement were the same as in Experiment 1.

[1] = two drops once per day vs twice a day, three weeks

Compound | myopia suppressing effect (overall conclusion) | change in refractive index | change in axial length | myopia suppressing effect (overall conclusion) (hydrochloride) | comparison of dosing frequency (once vs twice per day), axial length [1] | comparison of dosing frequency (once vs twice per day), refractive index [1]
CCCCCCCC(=O)CC[C@@H]1[C@@H](C/C=C\CCCC(=O)OC(C)C)[C@@H](O)C[C@H]1O [unoprostone, isopropyl unoprostone] | did not exhibit a myopia suppressing effect; also recorded: does not exhibit a myopia suppressing effect | both eyes became myopic and no myopia suppressing effect of the eye drops was confirmed | no significant difference in the axial lengths of the two eyes was confirmed | – | – | –
CCCC(=O)N1CCCN(c2nc(N)c3cc(OC)c(OC)cc3n2)CC1 [bunazosin, bunazosin hydrochloride] | – | no significant difference between the eyes with the −30D lenses and the eyes with OD lenses | substantially no difference in the axial lengths between the two eyes | exhibited a myopia-suppressing effect; also recorded: exhibits a myopia suppressing effect | no difference between one eye drop and two eye drops | one eye drop has a greater myopia suppressing effect than two eye drops
